Test results reported in patent US8476265B2, “Compounds-801” (AstraZeneca AB, priority 2010, dated 2013).

Legend:
[1] = target: T1, Adrenergic β2 (Homo sapiens, UniProt P07550); test: Adrenergic β2 mediated cAMP production in H292 cells, single concentration 1 μM; type: cell-based; settings: cAMP as percentage of the maximum response generated by 1E-07M formoterol; for percent of formoterol maximum response at 1 µM: NCI-H292, 1 μM compound, read-out: β2 % effect @1 uM
T1 construct: Adherent H292 cells are removed from tissue culture flasks by treatment with Accutase™ cell detachment solution; endogenous in cells; host or cells: H292 cells
Outline: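 H292 cells pretreated with rolipram (300 μM final) 10 min, then compound at 1 μM final, 1% DMSO, 60 min at room temperature in HBSS/10 mM HEPES pH 7.4/5 mM glucose. Lysate cAMP quantified by AlphaScreen against a standard curve, as % of maximal response to 1E-07M formoterol.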

[2] = target: T2, human muscarinic acetylcholine M3 receptor (Homo sapiens, UniProt P20309); test: Muscarinic 3 receptor binding assay ([3H]NMS competition, SPA), single concentration 1 μM; settings: 1 μM compound; % inhibition specific [3H]-NMS binding
T2 construct: expressed in transfected cells; host or cells: CHO-K1 (Chinese Hamster Ovary) cell membranes
Outline: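 CHO-K1 membranes expressing human M3 on SPA beads, competition with 0.1 nM [3H]NMS (quarter Kd) in 20 mM HEPES pH 7.4, 5 mM MgCl2, 0.1% BSA, 1% DMSO; compound at 1 μM. 16 h at room temperature. Value is % inhibition of specific binding, non-specific defined with 1 μM atropine.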

T1 sequence (P07550 whole entry): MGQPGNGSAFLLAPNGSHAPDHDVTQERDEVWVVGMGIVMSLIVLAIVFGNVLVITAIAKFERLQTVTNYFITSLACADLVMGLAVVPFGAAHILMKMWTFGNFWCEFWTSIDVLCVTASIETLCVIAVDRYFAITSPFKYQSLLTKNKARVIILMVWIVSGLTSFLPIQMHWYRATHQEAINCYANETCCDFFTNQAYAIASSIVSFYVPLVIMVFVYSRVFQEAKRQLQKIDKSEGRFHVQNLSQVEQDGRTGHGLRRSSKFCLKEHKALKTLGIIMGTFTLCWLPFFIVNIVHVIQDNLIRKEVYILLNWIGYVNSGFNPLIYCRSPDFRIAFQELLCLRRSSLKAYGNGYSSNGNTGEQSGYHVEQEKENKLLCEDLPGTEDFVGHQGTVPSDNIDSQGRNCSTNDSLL
T2 sequence (P20309 whole entry): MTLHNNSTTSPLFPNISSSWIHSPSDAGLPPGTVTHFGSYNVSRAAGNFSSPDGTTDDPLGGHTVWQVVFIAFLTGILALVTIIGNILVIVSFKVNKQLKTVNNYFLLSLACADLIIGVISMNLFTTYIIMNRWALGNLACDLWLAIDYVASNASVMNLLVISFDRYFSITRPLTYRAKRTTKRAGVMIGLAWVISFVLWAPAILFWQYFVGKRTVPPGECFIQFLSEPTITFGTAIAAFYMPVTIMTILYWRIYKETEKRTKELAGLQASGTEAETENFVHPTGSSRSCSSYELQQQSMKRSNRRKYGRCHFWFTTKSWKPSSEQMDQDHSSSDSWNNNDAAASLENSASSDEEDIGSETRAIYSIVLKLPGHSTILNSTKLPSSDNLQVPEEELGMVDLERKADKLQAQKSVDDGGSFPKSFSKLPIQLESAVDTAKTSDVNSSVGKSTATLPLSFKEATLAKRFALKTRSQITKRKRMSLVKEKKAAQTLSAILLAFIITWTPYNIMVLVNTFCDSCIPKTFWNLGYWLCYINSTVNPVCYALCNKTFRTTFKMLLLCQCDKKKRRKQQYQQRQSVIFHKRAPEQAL

percent of formoterol maximum response at 1 µM [1] [%] | inhibition at 1 µM [2] [%] | Compound | β2 % effect @1 uM ([1]; 1 μM compound) [%] | M3 % inhibition @1 uM [2] [%]
110 | 97 | Cc1ccccc1OCC(=O)N1CCOC2(CCN(Cc3cccc(CCOCCC(=O)N(CCNCCc4ccc(O)c5c4OCC(=O)N5)C4CCCCC4)c3)CC2)C1 [Example 127, N-Cyclohexyl-N-(2-(2-(5-hydroxy-3-oxo-3,4-dihydro-2H-benzo[b][1,4]oxazin-8-yl)ethylamino)ethyl)-3-(3-((4-(2-(o-tolyloxy)acetyl)-1-oxa-4,9-diazaspiro[5.5]undecan-9-yl)methyl)phenethoxy)propanamide] |  | 
110 | 99 | O=C1COc2c(CCNCCN(C(=O)CCOCCc3cccc(CN4CCC5(CC4)CN(C(=O)[C@@H](O)C4CCCCC4)CCO5)c3)C3CCCCC3)ccc(O)c2N1 [Example 129, (S)-N-Cyclohexyl-3-(3-((4-(2-cyclohexyl-2-hydroxyacetyl)-1-oxa-4,9-diazaspiro[5.5]undecan-9-yl)methyl)phenethoxy)-N-(2-(2-(5-hydroxy-3-oxo-3,4-dihydro-2H-benzo[b][1,4]oxazin-8-yl)ethylamino)ethyl)propanamide] |  | 
84 | 88 | O=C1COc2c(CCNCCN(C(=O)CCOCCc3cccc(CN4CCC5(CC4)CN(C(=O)c4cnccc4C(F)(F)F)CCO5)c3)C3CCCCC3)ccc(O)c2N1 [Example 121, N-Cyclohexyl-N-(2-(2-(5-hydroxy-3-oxo-3,4-dihydro-2H-benzo[b][1,4]oxazin-8-yl)ethylamino)ethyl)-3-(3-((4-(4-(trifluoromethyl)nicotinoyl)-1-oxa-4,9-diazaspiro[5.5]undecan-9-yl)methyl)phenethoxy)propanamide] |  | 
108 | 96 | O=C1COc2c(CCNCCN(C(=O)CCOCCc3cccc(CN4CCC5(CC4)CN(C(=O)Cc4c[nH]c6ccccc46)CCO5)c3)C3CCCCC3)ccc(O)c2N1 [Example 141, 3-(3-((4-(2-(1H-Indol-3-yl)acetyl)-1-oxa-4,9-diazaspiro[5.5]undecan-9-yl)methyl)phenethoxy)-N-cyclohexyl-N-(2-(2-(5-hydroxy-3-oxo-3,4-dihydro-2H-benzo[b][1,4]oxazin-8-yl)ethylamino)ethyl)propanamide] |  | 
80 | 94 | O=C1COc2c(CCNCCN(C(=O)CCOCCc3cccc(CN4CCC5(CC4)CN(C(=O)CC46CC7CC(CC(O)(C7)C4)C6)CCO5)c3)C3CCCCC3)ccc(O)c2N1 [Example 116, N-Cyclohexyl-3-[2-[3-[[10-[2-(3-hydroxy-1-adamantyl)acetyl]-7-oxa-3,10-diazaspiro[5.5]undecan-3-yl]methyl]phenyl]ethoxy]-N-[2-[2-(5-hydroxy-3-oxo-4H-1,4-benzoxazin-8-yl)ethylamino]ethyl]propanamide] |  | 
105 | 95 | CCOc1ncccc1C(=O)N1CCOC2(CCN(Cc3cccc(CCOCCC(=O)N(CCNCCc4ccc(O)c5c4OCC(=O)N5)C4CCCCC4)c3)CC2)C1 [Example 101, N-Cyclohexyl-3-(3-((4-(2-ethoxynicotinoyl)-1-oxa-4,9-diazaspiro[5.5]undecan-9-yl)methyl)phenethoxy)-N-(2-(2-(5-hydroxy-3-oxo-3,4-dihydro-2H-benzo[b][1,4]oxazin-8-yl)ethylamino)ethyl)propanamide] |  | 
117 | 90 | O=C1COc2c(CCNCCN(C(=O)CCOCCc3cccc(CN4CCC5(CC4)CN(C(=O)c4cnc(-c6ccccc6)[nH]4)CCO5)c3)C3CCCCC3)ccc(O)c2N1 [Example 145, N-Cyclohexyl-N-(2-(2-(5-hydroxy-3-oxo-3,4-dihydro-2H-benzo[b][1,4]oxazin-8-yl)ethylamino)ethyl)-3-(3-((4-(2-phenyl-1H-imidazole-5-carbonyl)-1-oxa-4,9-diazaspiro[5.5]undecan-9-yl)methyl)phenethoxy)propanamide] |  | 
93 | 99 | CC(C)(C)C(=O)N1CCOC2(CCN(Cc3cccc(CCOCCC(=O)N(CCNCCc4ccc(O)c5c4OCC(=O)N5)C4CCCCC4)c3)CC2)C1 [Example 155, N-Cyclohexyl-N-(2-(2-(5-hydroxy-3-oxo-3,4-dihydro-2H-benzo[b][1,4]oxazin-8-yl)ethylamino)ethyl)-3-(3-((4-pivaloyl-1-oxa-4,9-diazaspiro[5.5]undecan-9-yl)methyl)phenethoxy)propanamide] |  | 
 |  | O=C1COc2c(CCNCCN(C(=O)CCOCCc3cccc(CN4CCC5(CC4)CN(C(=O)CC4(O)CCCCCC4)CCO5)c3)C3CCCCC3)ccc(O)c2N1 [Example 148, N-Cyclohexyl-N-(2-(2-(5-hydroxy-3-oxo-3,4-dihydro-2H-benzo[b][1,4]oxazin-8-yl)ethylamino)ethyl)-3-(3-((4-(2-(l-hydroxycycloheptyl)acetyl)-1-oxa-4,9-diazaspiro[5.5]undecan-9-yl)methyl)phenethoxy)propanamide] | 108 | 95
90 | 99 | Cc1nc2cc(C(=O)N3CCOC4(CCN(Cc5cccc(CCOCCC(=O)N(CCNCCc6ccc(O)c7c6OCC(=O)N7)C6CCCCC6)c5)CC4)C3)ccc2[nH]1 [Example 117, N-Cyclohexyl-N-(2-(2-(5-hydroxy-3-oxo-3,4-dihydro-2H-benzo[b][1,4]oxazin-8-yl)ethylamino)ethyl)-3-(3-((4-(2-methyl-1H-benzo[d]imidazole-5-carbonyl)-1-oxa-4,9-diazaspiro[5.5]undecan-9-yl)methyl)phenethoxy)propanamide] |  | 
98 | 99 | O=C1COc2c(CCNCCN(C(=O)CCOCCc3cccc(CN4CCC5(CC4)CN(C(=O)Cc4ccsc4)CCO5)c3)C3CCCCC3)ccc(O)c2N1 [Example 109, N-Cyclohexyl-N-(2-(2-(5-hydroxy-3-oxo-3,4-dihydro-2H-benzo[b][1,4]oxazin-8-yl)ethylamino)ethyl)-3-(3-((4-(2-(thiophen-3-yl)acetyl)-1-oxa-4,9-diazaspiro[5.5]undecan-9-yl)methyl)phenethoxy)propanamide] |  | 
97 | 96 | Cc1ncc(Br)cc1C(=O)N1CCOC2(CCN(Cc3cccc(CCOCCC(=O)N(CCNCCc4ccc(O)c5c4OCC(=O)N5)C4CCCCC4)c3)CC2)C1 [Example 118, 3-(3-((4-(5-Bromo-2-methylnicotinoyl)-1-oxa-4,9-diazaspiro[5.5]undecan-9-yl)methyl)phenethoxy)-N-cyclohexyl-N-(2-(2-(5-hydroxy-3-oxo-3,4-dihydro-2H-benzo[b][1,4]oxazin-8-yl)ethylamino)ethyl)propanamide] |  | 
107 | 96 | CCOc1ccccc1C(=O)N1CCOC2(CCN(Cc3cccc(CCOCCC(=O)N(CCNCCc4ccc(O)c5c4OCC(=O)N5)C4CCCCC4)c3)CC2)C1 [Example 111, N-Cyclohexyl-3-(3-((4-(2-ethoxybenzoyl)-1-oxa-4,9-diazaspiro[5.5]undecan-9-yl)methyl)phenethoxy)-N-(2-(2-(5-hydroxy-3-oxo-3,4-dihydro-2H-benzo[b][1,4]oxazin-8-yl)ethylamino)ethyl)propanamide] |  | 
112 | 100 | O=C1COc2c(CCNCCN(C(=O)CCOCCc3cccc(CN4CCC5(CC4)CN(C(=O)C4(c6ccccc6)CC4)CCO5)c3)C3CCCCC3)ccc(O)c2N1 [Example 113, N-Cyclohexyl-N-(2-(2-(5-hydroxy-3-oxo-3,4-dihydro-2H-benzo[b][1,4]oxazin-8-yl)ethylamino)ethyl)-3-(3-((4-(1-phenylcyclopropanecarbonyl)-1-oxa-4,9-diazaspiro[5.5]undecan-9-yl)methyl)phenethoxy)propanamide] |  | 
106 | 100 | COC1CCCC(C(=O)N2CCOC3(CCN(Cc4cccc(CCOCCC(=O)N(CCNCCc5ccc(O)c6c5OCC(=O)N6)C5CCCCC5)c4)CC3)C2)C1 (stereo not shown) [Example 114, N-Cyclohexyl-N-(2-(2-(5-hydroxy-3-oxo-3,4-dihydro-2H-benzo[b][1,4]oxazin-8-yl)ethylamino)ethyl)-3-(3-((4-(3-methoxycyclohexanecarbonyl)-1-oxa-4,9-diazaspiro[5.5]undecan-9-yl)methyl)phenethoxy)propanamide] |  | 
101 | 100 | O=C1COc2c(CCNCCN(C(=O)CCOCCc3cccc(CN4CCC5(CC4)CN(C(=O)c4cc6cc(F)ccc6[nH]4)CCO5)c3)C3CCCCC3)ccc(O)c2N1 [Example 107, N-Cyclohexyl-3-(3-((4-(5-fluoro-1H-indole-2-carbonyl)-1-oxa-4,9-diazaspiro[5.5]undecan-9-yl)methyl)phenethoxy)-N-(2-(2-(5-hydroxy-3-oxo-3,4-dihydro-2H-benzo[b][1,4]oxazin-8-yl)ethylamino)ethyl)propanamide] |  | 
102 | 101 | O=C1COc2c(CCNCCN(C(=O)CCOCCc3cccc(CN4CCC5(CC4)CN(C(=O)Cc4ccccc4F)CCO5)c3)C3CCCCC3)ccc(O)c2N1 [Example 169, N-Cyclohexyl-3-(3-((4-(2-(2-fluorophenyl)acetyl)-1-oxa-4,9-diazaspiro[5.5]undecan-9-yl)methyl)phenethoxy)-N-(2-(2-(5-hydroxy-3-oxo-3,4-dihydro-2H-benzo[b][1,4]oxazin-8-yl)ethylamino)ethyl)propanamide] |  | 
